According to US20180371404A1, “METABOLIC ENGINEERING OF MEMBRANE PROTEINS TO IMPROVE ESCHERICHIA COLI MEMBRANE INTEGRITY AND PRODUCTION OF FATTY ACIDS” (priority 2017, published 2018):
Values joined by “and” are separate entries in the source; they are usually repeats but may differ in a detail not shown here. Equal entries are not always repeated.

Key:
E. coli Frag1 = settings: 8 mM acetate; cited from earlier work
E. coli BW25113 = settings: up to 20 mM C8, pH 7.0, 37° C.; cited from earlier work
E. coli MG1655 [1] = assay: Membrane integrity (SYTOX Green, flow cytometry) during C8 challenge; assay type: cell-based
Protocol: Membrane Integrity Characterization: Cells were centrifuged, washed twice, and then resuspended in PBS buffer (pH 7.0) at a final OD550 of ˜1. One hundred microliter (100 μl) of this suspension was mixed with 900 μl of PBS buffer and SYTOX Green (Invitrogen) was added to a final concentration of 5.0 μM. After resting at room temperature for 15 minutes, cells were analyzed by a BD Biosciences FACSCanto II flow cytometer equipped with standard factory-installed 488 nm excitation laser, signal collection optics, and fluorescence emission filter configuration. Instrument sheath fluid was filtered (0.22 μm) PBS buffer. Green fluorescence from stained cells was collected in the FL1 channel (525/50 nm). Forward scatter (FSC), side scatter (SSC), and FL1 (Green) parameters were collected as logarithmic signals. All data collections were performed at low flow rate setting (˜12 μl/min) and cell concentrations were such that the event rate was below 5,000 events/s. All samples were analyzed immediately after staining. Background noise and small debris was eliminated from data collection via a side scatter signal threshold that was established by examining samples containing only SYTOX Green staining buffer. Bacteria in SYTOX Green-stained samples were readily identified on the basis of FSC and SSC signals and an appropriate “Cell” gate was drawn to limit FL1 analysis to bacteria and exclude non-cell events. A minimum of 20,000 cell-gated events were collected for each sample. Green fluorescence data for these “cell” events were plotted as histograms showing the signal distribution of bacteria in the sample [14]. Flow cytometry data for this work is available via Flow Repository (https://flowrepository.org) (FR-FCM-ZY2B).

E. coli MG1655 [2] = settings: 40 mM; cited from earlier work
E. coli MG1655 [3] = assay: Octanoic acid tolerance characterization (specific growth rate); assay type: cell-based
Protocol: 2.2 Strain Tolerance Characterization: Octanoic acid tolerance was characterized in 50 ml MOPS defined minimal medium with 2.0% (wt/v) dextrose and 10 mM octanoic acid (1.44 g/L) in 250 ml baffled flasks at 220 rpm and initial pH at 7.0, 30° C. MOPS media contains the following: 8.37 g/L 3-(N-morpholino)propanesulfonic acid (MOPS), 0.72 g/L tricine, 2.92 g/L NaCl, 0.51 g/L NH4Cl, 1.6 g/L KOH, 50 mg/L MgCl2, 48 mg/L K2SO4, 348 mg/L K2HPO4, 0.215 mg/L Na2SeO3, 0.303 mg/L Na2MoO4.2H2O, 0.17 mg/L ZnCl2, 2.5 μg/L FeCl2.4H2O, 0.092 μg/L CaCl2.2H2O, 0.031 μg/L H3BO3, 0.020 μg/L MnCl2.4H2O, 0.0090 μg/L CoCl2.4H2O, and 0.0020 μg/L CuCl2.4H2O [43, 44]. Specific growth rate μ (h-1) was calculated by fitting the equation OD=OD0e^μt over the duration of the exponential growth phase. […] Dry cell weight (DCW) was calculated from the optical density at 550 nm (1 OD550=0.333 g DCW/L).

BW25113 [4] = settings: phenol at 50-75% of the MIC in LB at 37° C.; cited from earlier work
E. coli KO11 = settings: cited from earlier work
BW25113 [5] = settings: 10 vol % hexane in LB at 37° C.; cited from earlier work
E. coli LY01 = settings: cited from earlier work

CC(=O)O [acetate]
reduction of specific growth rate (E. coli Frag1): 50%

CCCCCCCC(=O)O [C8, octanoic acid]
magnitude of intracellular acidification on deletion of ompF (E. coli BW25113): assessed via the maximum OD. Deletion of ompF decreased the magnitude | increase in membrane integrity (E. coli MG1655 [1]; 10 mM C8, Gen-fadL vs Gen-empty): 14% | increase in membrane integrity (E. coli MG1655 [1]; 10 mM C8, Pla-fadL vs Pla-empty): 25% | percentage of cells with intact membranes, lower than MG1655 (E. coli MG1655 [1]; 10 mM C8, ΔfadL vs MG1655): 23% | increase in percentage of cells with intact membranes (E. coli MG1655 [1]; 10 mM C8, ΔompF vs wild-type control strain): 18% | increase in percentage of cells with intact membranes (E. coli MG1655 [1]; C8 challenge, ΔompF+Pla-fadL vs Pla-empty): 37% | growth inhibition (E. coli MG1655 [2]): completely inhibitory | specific growth rate (E. coli MG1655 [3]; 10 mM C8, strain Gen-empty): 0.31 h⁻¹ | specific growth rate (E. coli MG1655 [3]; 10 mM C8, strain Gen-fadL): 0.33 h⁻¹ | specific growth rate (E. coli MG1655 [3]; 10 mM C8, strain MG1655, MOPS+2% dextrose, 30° C., initial pH 7.0): 0.31 h⁻¹ | specific growth rate (E. coli MG1655 [3]; 10 mM C8, strain Pla-empty): 0.31 h⁻¹ | specific growth rate (E. coli MG1655 [3]; 10 mM C8, strain Pla-fadL): 0.33 h⁻¹ and 0.32 h⁻¹ | specific growth rate (E. coli MG1655 [3]; 10 mM C8, strain ΔfadL): 0.27 h⁻¹ | specific growth rate (E. coli MG1655 [3]; 10 mM C8, strain ΔompF+Pla-fadL): 0.36 h⁻¹ | specific growth rate, higher than control (E. coli MG1655 [3]; 10 mM C8, ΔompF+Pla-fadL vs Pla-empty): 18% | specific growth rate, higher than individual increased expression of fadL (E. coli MG1655 [3]; 10 mM C8, ΔompF+Pla-fadL vs Pla-fadL): 12% | specific growth rate, higher than individual deletion of ompF (E. coli MG1655 [3]; 10 mM C8, ΔompF+Pla-fadL vs ΔompF+Pla-empty): 10% | specific growth rate, higher than control (E. coli MG1655 [3]; C8 challenge, Gen-fadL vs Gen-empty): 7% | specific growth rate, higher than control (E. coli MG1655 [3]; C8 challenge, Pla-fadL vs Pla-empty): 8% | specific growth rate, lower than MG1655 (E. coli MG1655 [3]; C8 challenge, ΔfadL vs MG1655): 12% | specific growth rate, higher than MG1655 (E. coli MG1655 [3]; C8 challenge, ΔompF vs MG1655): 7%

Oc1ccccc1 [Phenol]
survival on deletion of fadL (BW25113 [4]): Deletion of fadL from BW25113 had no impact on survival

CCO [ethanol]
growth (E. coli KO11; 35 g/L ethanol, engineered E. coli KO11): grows poorly | cells surviving challenge (E. coli KO11; 100 g/L ethanol, KO11): less than 10%

CCCCCC(=O)O [hexanoic acid]
growth inhibition (E. coli MG1655 [2]): completely inhibitory

CCCCCC [Hexane]
survival (assessed by OD) on deletion of fadL (BW25113 [5]): Deletion of fadL from BW25113 increased survival, as assessed by OD

O=Cc1ccco1 [Furfural]
concentration that inhibits growth completely (E. coli LY01): 3.5 g/L
